Data published in patent publication US6548284B1, “Membrane-bound metalloprotease and soluble secreted form thereof” (JCR Pharmaceuticals Co., Ltd., priority 2000, dated 2003).
“Also recorded” adds a separate entry of the source. Ends that are not written are not given here.

Key:
soluble form of SEP [1] = biological target: T1, soluble form of SEP (Mus musculus, UniProt Q9JLI3); assay: SEP-catalyzed hydrolysis of bioactive peptides monitored by HPLC; format: biochemical; details: by recombinant soluble SEP, substrate peak area vs control
T1 construct: partially purified the soluble form of SEP from the conditioned medium of CHO/SEP cells; made in house; host or cells: CHO-K1 cells, transient transfection; conditioned medium partially purified on a wheat germ lectin column
T1 sequence (Q9JLI3 63-765 limits assumed): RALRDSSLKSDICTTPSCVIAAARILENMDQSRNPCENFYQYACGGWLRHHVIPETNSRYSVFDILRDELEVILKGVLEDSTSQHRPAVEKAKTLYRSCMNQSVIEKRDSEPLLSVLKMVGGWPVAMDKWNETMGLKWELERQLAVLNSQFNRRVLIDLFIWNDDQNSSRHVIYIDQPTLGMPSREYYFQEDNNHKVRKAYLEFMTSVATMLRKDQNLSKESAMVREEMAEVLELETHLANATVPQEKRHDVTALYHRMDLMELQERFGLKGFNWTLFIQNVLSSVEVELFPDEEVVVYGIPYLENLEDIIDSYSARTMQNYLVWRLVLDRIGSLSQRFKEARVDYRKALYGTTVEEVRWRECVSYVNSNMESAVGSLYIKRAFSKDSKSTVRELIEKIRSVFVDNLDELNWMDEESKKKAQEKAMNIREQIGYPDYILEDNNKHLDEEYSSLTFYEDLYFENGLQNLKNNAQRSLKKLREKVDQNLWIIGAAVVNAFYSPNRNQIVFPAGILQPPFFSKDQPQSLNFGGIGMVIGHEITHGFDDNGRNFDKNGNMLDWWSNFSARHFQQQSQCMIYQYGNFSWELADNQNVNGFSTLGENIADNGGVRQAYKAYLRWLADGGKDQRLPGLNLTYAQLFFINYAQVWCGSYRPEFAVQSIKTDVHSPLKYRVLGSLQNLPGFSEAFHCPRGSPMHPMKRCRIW
Protocol: (§1) CHO-K1 cells were cultured [Emoto, N. et al., J. Biol. Chem., 274:1509-1518(1999)]. Double transfection of prepro-ET-1and ECE-1a, SEP, or SEP^Δ was performed using LipofectAMINE (Life Technologies, Inc.). Twelve hours after transfection, cells were refed with fresh medium. […] For in vitro enzymological charactenization, an SEP expression construct was transiently transfected into CHO-K1 cells. The medium was conditioned for 48 h in CHO-SFM II (Life Technologies, Inc.) and was subjected to a wheat germ lectin column (1×1 ml HiTrap wheat germ lectin; Amersham Pharmacia Biotech) equilibrated with 20 mM Tris-Cl (pH 7.4) and 0.5M NaCl. The column was washed and eluted with the same buffer containing 0.5M N-acetylglucosamine. The active fraction was subsequently subjected to a Centriprep concentrator (Amicon).
(§2) Reaction mixtures for enzyme assay (100 μl) contained 0.1 M MES-NaOH(pH 7.4), 0.5 μM peptide, and an enzyme fraction. For some experiments, the reactions were preincubated at 37° C. with various protease inhibitors for 15 min prior to the addition of the peptide. The reactions were incubated at 37° C. for 1-12 h in siliconized 0.5-ml microcentrifuge tubes. The enzyme reaction was terminated by adding 1 μl of 10 mM EDTA. The mixture was then injected into a C18 reverse-phase high pressure liquid chromatography (HPLC) column (μRPC C2/C18, ST4.6/100; Amersham Pharmacia Biotech) that was equilibrated with 10% (v/v) acetonitrile and 0.1% (v/v) trifluoroacetic acid. The column was eluted at a flow rate of 1 ml/min with a 10-80% linear gradient of acetonitrile and 0.1% trifluoroacetic acid over 43 min, followed by a 100% acetonitrile for an additional 3 min. Peptides were detected by absorbance at 220 nm.
Previously, the present inventors have shown that ECE-1 cleaves the Trp^21-Val^22 bond of big ET-1 (1-38) to produce mature ET-1(1-21) and the C-terminal half of big ET-1(22-38) without further cleaving other parts of big ET-1 or ET-1 [Xu, D. et al., Cell, 78:473-485(1994)]. To examine the cleavage site(s) of big ET-1 and mature ET-1 by recombinant SEP in an […] assay, the present inventors partially purified the soluble form of SEP from the conditioned medium of CHO/SEP cells. The present inventors then incubated relatively large amounts of big ET-1 (10 μM) and ET-1 (1.5 μM) with partially purified SEP for a prolonged period of time (12 h) while directly monitoring the cleavage by reverse-phase HPLC. Product peaks were collected, and the peptides were identified by mass spectrometry. Big ET-1 (1-38) was hydrolyzed to a significant degree (42%) by the soluble form of SEP, and HPLC resolved at least four distinct product peaks (FIG. 7B). Two peptides products (FIG. 7C, peaks 1 and 4) were co-eluted with the standards of big ET-1 (22-38) and mature ET-1 (1-21), respectively. Analysis using mass spectrometry confirmed that they were big ET-1 (22-38) and mature ET-1(1-2 1), with an m/z value for (M+H)^+ of 1810 and 2493, respectively. These finding indicate that the soluble form of SEP can produce ET-1 by cleaving at the specific Trp^21-Val^22 site of big ET-1. On the other hand, it appears that ET-1 is further digested by the soluble form of SEP. […] These two major peaks (FIG. 7D, peaks 1 and 2) from mature ET-1 were co-eluted with the peaks (FIG. […], peaks 2 and 3, respectively) produced from big ET-1 hydrolysis. Using molecular masses, one peptide product (FIG. 7; C, peak 3, and D, peak 2) was identified as ET-1 (1-16). Another peptide product (FIG. 7; C, peak 2, and D, peak 1) appeared to be the two-chain ET-1 (1-16), which is held together by two disulfide bonds between Cys^1 and Cys^15 and between Cys^3 and Cys^11, presumably produced by cleavage at one site between Ser^4 and Glu^10 of ET-1 (1-16).
Finally, the present inventors examined the SEP-catalyzed hydrolysis of other bioactive peptides that have been characterized as substrates of ECE-1 and/or NEP. […]

soluble form of SEP [2] = biological target: T1, soluble form of SEP; assay: Inhibition of ET-1 degrading activity of recombinant soluble SEP; format: biochemical; details: for SEP activity: Inhibitor 100 μM, SEP partially purified from conditioned medium of CHO/SEP cells, no inhibitor = 100, unit assumed; for IC50 / inhibition of SEP activity (in words): soluble form of SEP; for IC50: ET-1 degrading activity, dose-dependent, read-out: apparent IC50, inhibition of SEP activity; for inhibition of SEP activity (in words): in vitro
Protocol: as §1, with “Double” for “CHO-K1 cells were cultured [Emoto, N. et al., J. Biol. Chem., 274:1509-1518(1999)]. Double”
as §2
The present inventors next assessed the enzymological properties of cloned SEP by using its ET-1 degrading activity.

ECE-1 and ECE-2 = details: ECE-1 vs ECE-2; cited from earlier work
[3] = biological target: T2, synthetic human ET-1 (1-21), P05305
T2 chain: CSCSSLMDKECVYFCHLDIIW

substance P, P20366 = biological target: T3, substance P, P20366
T3 chain: RPKPQQFFGLM

[4] = biological target: atrial natriuretic peptide
[5] = biological target: T4, synthetic human big ET-1 (1-38), P05305
T4 chain: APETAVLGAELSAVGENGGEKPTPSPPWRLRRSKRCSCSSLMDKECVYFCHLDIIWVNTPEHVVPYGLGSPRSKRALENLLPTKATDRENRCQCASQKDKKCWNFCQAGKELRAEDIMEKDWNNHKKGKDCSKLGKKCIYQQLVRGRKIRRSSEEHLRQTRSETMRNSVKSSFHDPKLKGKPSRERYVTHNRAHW

angiotensin I, P01019, sequence (P01019 whole entry, looked up): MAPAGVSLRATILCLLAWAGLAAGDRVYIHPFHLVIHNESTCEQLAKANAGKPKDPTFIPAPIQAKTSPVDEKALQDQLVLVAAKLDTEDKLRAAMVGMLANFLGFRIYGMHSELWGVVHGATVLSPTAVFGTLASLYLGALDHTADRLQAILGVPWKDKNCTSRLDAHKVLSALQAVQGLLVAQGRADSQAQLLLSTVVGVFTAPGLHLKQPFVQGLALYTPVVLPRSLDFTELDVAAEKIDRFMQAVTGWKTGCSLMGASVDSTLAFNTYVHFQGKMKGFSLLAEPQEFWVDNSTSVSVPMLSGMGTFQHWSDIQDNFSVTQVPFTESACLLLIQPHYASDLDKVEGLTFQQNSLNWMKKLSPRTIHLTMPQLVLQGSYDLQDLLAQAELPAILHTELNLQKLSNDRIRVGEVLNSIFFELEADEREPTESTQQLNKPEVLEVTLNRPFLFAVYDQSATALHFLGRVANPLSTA
bradykinin, P01042, sequence (P01042 whole entry, looked up): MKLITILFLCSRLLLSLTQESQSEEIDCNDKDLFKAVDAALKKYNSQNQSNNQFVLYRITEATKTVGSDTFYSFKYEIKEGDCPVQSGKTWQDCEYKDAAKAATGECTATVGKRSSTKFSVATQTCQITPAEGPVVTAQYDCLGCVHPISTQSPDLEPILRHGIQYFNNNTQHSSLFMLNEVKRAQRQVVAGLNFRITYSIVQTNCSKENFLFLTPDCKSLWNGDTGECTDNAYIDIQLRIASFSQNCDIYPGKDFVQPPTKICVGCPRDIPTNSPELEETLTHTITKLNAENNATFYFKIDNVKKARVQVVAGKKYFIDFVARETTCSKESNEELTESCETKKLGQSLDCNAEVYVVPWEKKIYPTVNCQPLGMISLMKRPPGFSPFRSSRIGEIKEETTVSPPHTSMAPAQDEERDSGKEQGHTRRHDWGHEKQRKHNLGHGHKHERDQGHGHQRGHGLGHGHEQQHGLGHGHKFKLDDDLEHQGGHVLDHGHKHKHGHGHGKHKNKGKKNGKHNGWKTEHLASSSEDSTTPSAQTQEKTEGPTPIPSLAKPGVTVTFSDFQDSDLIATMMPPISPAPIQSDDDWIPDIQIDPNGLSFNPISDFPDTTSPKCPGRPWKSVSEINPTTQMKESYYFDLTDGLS

Molecule	Hydrolysis (%) (soluble form of SEP [1])	SEP activity (soluble form of SEP [2]) [%]	inhibition of SEP activity (in words) (soluble form of SEP [2])	further results
Big endothelin-1: synthetic human big ET-1, inactive ET precursor (CSCSSLMDKECVYFCHLDIIWVNTPEHVVPYGLGSPRS; ends and bridges not checked; cysteine pairing not given here; UniProt P05305 53-90, looked up)	42			
CC[C@H](C)[C@@H]1NC(=O)[C@H](CCCNC(=N)N)NC(=O)[C@H](CC(=O)O)NC(=O)[C@H](CCSC)NC(=O)[C@H](CCCNC(=N)N)NC(=O)CNC(=O)CNC(=O)[C@H](Cc2ccccc2)NC(=O)[C@@H](NC(=O)[C@H](CO)NC(=O)[C@H](CO)NC(=O)[C@H](CCCNC(=N)N)NC(=O)[C@H](CCCNC(=N)N)NC(=O)[C@H](CC(C)C)NC(=O)[C@@H](N)CO)CSSC[C@@H](C(=O)N[C@@H](CC(N)=O)C(=O)N[C@@H](CO)C(=O)N[C@@H](Cc2ccccc2)C(=O)N[C@@H](CCCNC(=N)N)C(=O)N[C@@H](Cc2ccc(O)cc2)C(=O)O)NC(=O)CNC(=O)[C@H](CC(C)C)NC(=O)CNC(=O)[C@H](CO)NC(=O)[C@H](CCC(N)=O)NC(=O)[C@H](C)NC(=O)CNC1=O [Atrial Natriuretic peptide]	>95			
CC(C)C[C@H](NP(=O)(O)O[C@@H]1O[C@@H](C)[C@H](O)[C@@H](O)[C@H]1O)C(=O)N[C@@H](Cc1c[nH]c2ccccc12)C(=O)O [Phosphoramidon]		8	inhibited	IC50 (soluble form of SEP [2]): ~6 nM; sensitivity of ECE-1 to phosphoramidon lower than that of ECE-2 (ECE-1 and ECE-2): 250 fold
COc1c2c(c(O)c3c1C(O)Cc1cc(CC(C)O)c(C(=O)O)c(O)c1-3)C(=O)c1cccc(O)c1C2=O (stereo not shown) [FR901533]		38	not completely; also recorded: only partially inhibited	
c1cnc2c(c1)ccc1cccnc12 [1,10-Phenanthroline, 1,10-phenanthroline]		1	inhibited	
Endothelin-1: human ET-1, mature endothelin peptide	92			
RPPGFSPFR [Bradykinin]	>95			
Substance P: bioactive peptide substrate from American Peptides	>95			
Angiotensin I: bioactive peptide substrate from American Peptides (DRVYIHPFHL)	>95			
O=C(O)CNC(=O)C(CS)Cc1ccccc1 (stereo not shown) [Thiorphan]		2	efficiently inhibited	IC50 (soluble form of SEP [2]): ~2000 nM
C[C@H](CS)C(=O)N1CCC[C@H]1C(=O)O [Captopril, captopril]		103	not inhibited	
soluble form of SEP (soluble secreted endopeptidase), partially purified from the conditioned medium of CHO/SEP cells (protein) RALRDSSLKSDICTTPSCVIAAARILENMDQSRNPCENFYQYACGGWLRHHVIPETNSRYSVFDILRDELEVILKGVLEDSTSQHRPAVEKAKTLYRSCMNQSVIEKRDSEPLLSVLKMVGGWPVALDKWNETMGLKWELERQLAVLNSQFNRRVLIDLFIWNDDQNSSRHVIYIDQPTLGMPSREYYFQEDNNHKVRKAYPEFMTSVATMLRKDQNLSKESAMVREEMAEVLELETHLANATVPQEKRHDVTALYHRMDLMELQERFGLKGFNWTLFIQNVLSSVEVELFPDEEVVVYGIPYLENLEDIIDSYSARTMQNYLVWRLVLDRIGSLSQRFKEARVDYRKALYGTTVEEVRWRECVSYVNSNMESAVGSLYIKRAFSKDSKSTVRELIEKIRSVFVDNLDELNWMDEESKKKAQEKAMNIREQIGYPDYILEDNNKHLDEEYSSLTFYEDLYFENGLQNLKNNAQRSLKKLREKVDQNLWIIGAAVVNAFYSPNRNQIVFPAGILQPPFFSKDQPQSLNFGGIGMVIGHEITHGFDDNGRNFDKNGNMLDWWSNFSARHFQQQSQCMIYQYGNFSWELADNQNVNGFSSLGENIADNGGVRQAYKAYLRWLADGGKDQRLPGLNLTYAQLFFINYAQVWCGSYRPEFAVQSIKTDVHSPLKYRVLGSLQNLPGFSEAFHCPRGSPMHPMKRCRIW				Hydrolysis (%) (bradykinin, P01042): > 95%; Hydrolysis (%) (angiotensin I, P01019): > 95%; Hydrolysis (%) [3]: 92%; Hydrolysis (%) (substance P, P20366): > 95%; Hydrolysis (%) [4]: > 95%; Hydrolysis (%) [5]: 42%
